Measurements from patent US7754440B2 (priority 2001, dated 2010).
“Also recorded” adds a separate entry of the source.

Experiments:
Format in all cases: cell-based
HEK-Nav 1.3 cells = assay: Counter-screen: K+-dependent depolarization (VIPR FRET); settings: tetracaine 10 μM; K+ final 80 mM; FIG. 10
Nav1.3 sodium channel [1] = molecular target: T1, Nav1.3 sodium channel (Homo sapiens, UniProt Q9NY46); assay: Persistent sodium current screening assay using FRET dyes on VIPR (Na+-dependent depolarization); settings: tetracaine 10 μM; HEK-Nav 1.3 cells; FIG. 10
Nav1.3 sodium channel [2] = molecular target: T1, Nav1.3 sodium channel; assay: Na+ depletion/repletion persistent current assay with single-wavelength membrane potential dye on FLIPR-Tetra
Nav1.3 sodium channel [3] = molecular target: T1, Nav1.3 sodium channel; assay: cell-based; settings: for IC50: read-out: IC50 obtained using patch-clamp

T1 sequence (Q9NY46 whole entry): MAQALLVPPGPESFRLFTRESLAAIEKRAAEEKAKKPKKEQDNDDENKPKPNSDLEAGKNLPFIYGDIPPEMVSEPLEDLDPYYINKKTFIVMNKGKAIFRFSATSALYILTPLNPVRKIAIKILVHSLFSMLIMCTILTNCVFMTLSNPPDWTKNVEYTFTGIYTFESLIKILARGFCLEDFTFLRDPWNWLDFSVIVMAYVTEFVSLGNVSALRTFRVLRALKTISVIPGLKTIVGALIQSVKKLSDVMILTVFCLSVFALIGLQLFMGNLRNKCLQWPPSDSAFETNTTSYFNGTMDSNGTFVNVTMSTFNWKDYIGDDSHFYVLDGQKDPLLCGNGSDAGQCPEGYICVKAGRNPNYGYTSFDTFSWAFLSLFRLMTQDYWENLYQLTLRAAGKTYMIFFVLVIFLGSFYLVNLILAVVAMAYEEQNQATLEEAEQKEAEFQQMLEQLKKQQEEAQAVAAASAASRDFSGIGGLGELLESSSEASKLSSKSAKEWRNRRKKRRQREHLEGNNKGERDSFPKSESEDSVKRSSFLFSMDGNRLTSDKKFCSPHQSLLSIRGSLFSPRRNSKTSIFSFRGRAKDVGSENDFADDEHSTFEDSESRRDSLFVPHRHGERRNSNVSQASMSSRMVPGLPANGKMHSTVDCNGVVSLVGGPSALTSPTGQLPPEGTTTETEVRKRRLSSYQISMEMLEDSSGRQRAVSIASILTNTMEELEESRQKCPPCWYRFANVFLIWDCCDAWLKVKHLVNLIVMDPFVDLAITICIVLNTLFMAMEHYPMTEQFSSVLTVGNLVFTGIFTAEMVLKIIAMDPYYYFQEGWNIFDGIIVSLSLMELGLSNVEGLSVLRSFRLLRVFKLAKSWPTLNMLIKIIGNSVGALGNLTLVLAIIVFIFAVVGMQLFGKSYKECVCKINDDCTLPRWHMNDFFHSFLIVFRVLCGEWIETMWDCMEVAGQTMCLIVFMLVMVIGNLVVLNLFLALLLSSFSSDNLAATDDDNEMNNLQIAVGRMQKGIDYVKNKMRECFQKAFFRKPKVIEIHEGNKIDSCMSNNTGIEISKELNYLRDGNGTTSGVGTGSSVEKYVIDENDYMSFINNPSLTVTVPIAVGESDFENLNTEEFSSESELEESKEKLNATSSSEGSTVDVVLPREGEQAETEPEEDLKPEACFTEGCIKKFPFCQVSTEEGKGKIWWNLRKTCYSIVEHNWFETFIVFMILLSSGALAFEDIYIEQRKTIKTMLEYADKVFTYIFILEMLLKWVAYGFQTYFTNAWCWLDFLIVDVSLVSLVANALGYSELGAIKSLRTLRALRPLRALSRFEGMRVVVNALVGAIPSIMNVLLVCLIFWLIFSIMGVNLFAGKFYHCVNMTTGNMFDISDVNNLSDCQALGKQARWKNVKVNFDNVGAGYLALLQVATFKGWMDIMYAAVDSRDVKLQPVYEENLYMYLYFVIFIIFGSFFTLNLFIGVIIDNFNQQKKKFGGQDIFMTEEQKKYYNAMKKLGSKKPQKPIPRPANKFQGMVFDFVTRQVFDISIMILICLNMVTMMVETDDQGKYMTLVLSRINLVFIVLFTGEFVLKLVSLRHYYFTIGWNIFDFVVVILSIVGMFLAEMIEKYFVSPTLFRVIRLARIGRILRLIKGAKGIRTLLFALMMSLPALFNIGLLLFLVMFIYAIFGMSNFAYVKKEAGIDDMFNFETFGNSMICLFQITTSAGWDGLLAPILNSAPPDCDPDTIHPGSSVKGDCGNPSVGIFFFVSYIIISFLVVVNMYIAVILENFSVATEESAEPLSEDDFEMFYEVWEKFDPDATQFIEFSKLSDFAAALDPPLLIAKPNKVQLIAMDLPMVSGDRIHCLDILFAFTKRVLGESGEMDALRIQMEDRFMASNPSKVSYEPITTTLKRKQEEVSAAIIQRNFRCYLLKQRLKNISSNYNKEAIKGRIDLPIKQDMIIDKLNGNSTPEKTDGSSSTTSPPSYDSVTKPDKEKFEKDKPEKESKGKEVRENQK

## CCCCNc1ccc(C(=O)OCCN(C)C)cc1 [Tetracaine]
HEK-Nav 1.3 cells
  K+-dependent change in Rf/Ri (K+-dependent depolarization): not
Nav1.3 sodium channel [1]
  Na+-dependent change in Rf/Ri (Na+-dependent depolarization): inhibited

## TTX
Nav1.3 sodium channel [2]
  Na+ channel dependent component of the fluorescence response: blocked; also recorded: the initial response is lost
Nav1.3 sodium channel [2]; read-out: IC50 persistent sodium current, FLIPR-Tetra assay
  IC50: 0.005 µM
Nav1.3 sodium channel [3]
  Block of persistent current: completely blocked
  Block of transient current: completely blocked
  IC50: 0.005 µM

## CCN(CC)CC(=O)Nc1c(C)cccc1C [Lidocaine]
Nav1.3 sodium channel [2]
  IC50: 32 µM
Nav1.3 sodium channel [3]; comparison values for the persistent current assay
  IC50: 90 µM
